Reference: US20160168537A1, “DIFFERENTIATED CELLULAR COMPOSITIONS AND METHODS FOR THEIR PREPARATION AND USE” (LIFE TECHNOLOGIES CORPORATION, priority 2013, published 2016)

How the values were obtained:
CYP2B6 [1] = details: primary human hepatocytes, via PXR activation; stated as typical behaviour; cited from earlier work
CYP2B6 [2] = assay: P450 induction assay in HepaRG cells (CYP2B6 activity, hydroxybupropion formation from bupropion); format: cell-based; details: HepaRG cells cultured without matrix overlay; 10 μM RIF, 72 hours of treatment; induction is seen only when the cells are overlayed
Method: Cryopreserved HepaRG™ cells (Life Technologies Corporation) are terminally differentiated prior to cryopreservation. Frozen HepaRG™ cells were thawed and plated per manufacturer's instructions and placed into 37° C., 5% CO2 cell culture incubator. 24 hours after plating, media was aspirated and cells were overlayed using 0.35 mg/mL Geltrex® matrix in 4° C. in 770 media. 72 hours after plating, media was aspirated and media was exchanged with either 740 or 750 media containing 0.1% DMSO, 50 μM omeprazole (OMP), 1 mM Phenobarbital (PB), or 10 μM Rifampicin (RIF). 740 and 750 media containing vehicle or prototypical inducers was replaced daily for a total of 72 hours of treatment. Day 6 of culture (24 hours after last dosing), P450 activity was evaluated and total RNA was isolated. P450 activity was evaluated utilizing in situ incubations of prototypical substrates (100 μM phenacetin, 500 bupropion, 10 μM midazolam, or 200 μM testosterone) in Hanks' Balanced Salts Solution (HBSS) for 1 hour at 37° C. shaking on microplate shaker @600 rpm. After in situ incubations were completed, incubation matrix (supernatant/HBSS) was removed from cell monolayer and metabolite formation was evaluated by LC/MS-MS analysis. Microphotographs were taken daily to monitor morphological changes.

For `CO[C@H]1/C=C/O[C@@]2(C)Oc3c(C)c(O)c4c(O)c(c(/C=N/N5CCN(C)CC5)c(O)c4c3C2=O)NC(=O)/C(C)=C\C=C\[C@H](C)[C@H](O)[C@@H](C)[C@@H](O)[C@@H](C)[C@H](OC(C)=O)[C@@H]1C` [RIF, Rifampicin], the “induction of CYP2B6 enzyme activity” value (CYP2B6 [1]) is listed as “induces” and the “induction of CYP2B6” value (CYP2B6 [2]) is listed as “does not induce”.
